The values that follow come from paper doi:10.1101/2020.10.13.20211417v1 (medRxiv, 2020).

Data set [1] is described as follows: Noncompartmental plasma pharmacokinetics of CN-105 in CATCH participants. The format is in vivo, human. The note with it: for clearance / Vd / half-life: human, 1 mg/kg; for Vd: Vz.
The subject of data set [2] is patients with acute primary supratentorial ICH. In words: Hematoma volume from CT images. The format is in vivo, human.

Ac-VSRRR-NH2 [CN-105]: in data set [1] (Dose 1:Dose 13, SD), the “Accumulation, mean (SD) ratio of AUCs” value is on record as 1.3 (0.4). Further, the CL in data set [1] (Maximum, N=6) came out at 7.7 L/h; in data set [1] (Minimum, N=6), 4.6 L/h. For the same substance, the Vz in data set [1] (Maximum, N=6) was 56.8 L; in data set [1] (Minimum, N=6), 25.2 L. Moreover, the t1/2 turned out to be 8.7 h in data set [1] (Maximum, N=6) and 2.3 h in data set [1] (Minimum, N=6). The “λz,ss” value worked out at 0.3 h⁻¹ in data set [1] (Maximum, N=6); 0.2 h⁻¹ in data set [1] (Mean, N=6, SD 0.1, after last dose); 0.2 h⁻¹ in data set [1] (Median, N=6); 0.1 h⁻¹ in data set [1] (Minimum, N=6). In data set [1] (dose 13, 1.0 mg/kg IV over 30 min every 6 h, plasma, LC-MS/MS, SD 1335.9), the “Mean (SD) maximum concentrations” value turned out to be 5638.3 ng/mL. In addition, the clearance in data set [1] (plasma, intravenous) is 122 mL/min; in data set [1] (plasma, iv), 113 mL/min. Also, the distribution volume (Vd) in data set [1] (plasma, intravenous, Mean, N=6, SD 12.1) amounted to 41.2 L; in data set [1] (plasma, intravenous, Median, N=6) it was 37.2 L. The half-life was 4.5 h in data set [1] (plasma, intravenous, t1/2, Mean, N=6, SD 2.2, terminal phase) and 3.8 h in data set [1] (plasma, intravenous, t1/2, Median, N=6). Besides, the “Mean (SD) hematoma volume by CT” value is 25.1 (25.1) cm^3 in data set [2] (Day 1 after ICH), 21.9 (24.9) cm^3 in data set [2] (Day 2 after ICH), 19.7 (19.6) cm^3 in data set [2] (Day 5 after ICH) and 22.8 (23.7) cm^3 in data set [2] (on admission). In addition, the “hematoma volumes versus 1:1 matched ERICH participants” value in data set [2] (Days 0, 1, 2, 5, box plots, descriptive) was “No difference”. Also, the “participants with incidence of hemorrhage extension” value in data set [2] (Nine of 38, one with clinical deterioration) stood at 24%.

As a reminder, the Vz is a proportionality between amount in the body and measured concentration, not a real space. High values mean wide distribution into tissue, low ones little distribution into tissue. By clearance is commonly meant the volume of plasma or blood freed of the substance per unit of time. A higher clearance goes with a high capacity for elimination. The Vd is a proportionality between amount in the body and measured concentration, not a real space. A higher Vd goes with extensive tissue distribution. One may read the half-life as the time needed for the level to fall by half in the phase considered.
